Tests used:
[1] = target: T1, THRβ (Homo sapiens, UniProt P10828); test: Time-resolved FRET (THR-FRET) agonist activity assay, GST-tagged THRβ LBD with SRC2 polypeptide; format: biochemical; conditions: ratio of THR-FRET EC50 values THRα/THRβ
T1 construct: made in house; host or cells: E. coli BL21 (DE3)
T1 sequence (P10828 217-461 limits assumed): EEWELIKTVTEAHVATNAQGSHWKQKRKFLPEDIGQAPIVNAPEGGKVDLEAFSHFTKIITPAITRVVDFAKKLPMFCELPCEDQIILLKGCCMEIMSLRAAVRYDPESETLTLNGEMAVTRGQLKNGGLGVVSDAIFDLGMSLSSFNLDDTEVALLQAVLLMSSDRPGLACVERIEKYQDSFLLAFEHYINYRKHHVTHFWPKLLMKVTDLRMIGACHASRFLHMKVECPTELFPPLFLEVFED
Excerpt: Experimental Example 2: Detection of Agonist Activities of Compounds Against THRα/β Based on Time-Resolved Fluorescence Resonance Energy Transfer (THR-FRET)
By visiting NCBI, the THRα/β LBD domain sequences were found. The pET21-His-GST-dLBT-THRα LBD and pET21-His-GST-dLBT-THRβ LBD overexpression vectors were constructed by the fusion method, and sequenced to confirm the accuracy of the sequences.
The correctly sequenced THRα LBD and THRβ LBD overexpression vectors were transfected into E. coli cells BL21 (DE3), and spread on an agar plate with ampicillin. Monoclones were picked out and amplified in an LB medium, and transferred into 1 L LB at a ratio of 1:100 for large-scale culture. When the OD value was at 0.8 to 1.2, 0.5 mM isopropyl-beta-D-thiogalactopyranoside (IPTG) was added, and induced overnight at 18° C. The bacteria were harvested, disrupted, and purified via the GST column and the molecular sieve to obtain two proteins His-GST-dLBT-THRα LBD and His-GST-dLBT-THRβ LBD.
The proteins were taken out from a refrigerator at −80° C. The proteins with the GST-tagged THRα/β LBD domain and the Eu-labelled GST antibodies were thawed slowly on ice, and an assay buffer containing a final concentration of 5 mM dithiothreitol (DTT) was formulated.
The starting concentration of the compound was 100 μM (in DMSO). The compound (100 μM in DMSO) was subjected to 3-fold isogradient dilution with DMSO to obtain a total of 11 isogradient concentrations. Subsequently, the above compounds at the isogradient concentration were further subjected to 50-fold dilution with an assay buffer containing 5 mM DTT.
The final concentrations of all components were calculated based on a system with a final volume of 20 μL per well. To 18 μL of assay buffer containing 5 mM DTT, the GST-tagged THRα/β proteins, the SRC2 ([…]) polypeptide, XL665 (Cisobio, #610SAXLB), and the Eu-labeled GST antibody were added, and the final concentrations were 2 nM, 200 nM, 0.05 nM, and 7.6 nM respectively to formulate 18 μL of reaction mixture of the proteins, polypeptide, and antibody per well.
18 μL of reaction mixture and 2 μL of diluted compound were added into an optiplate-384-well plate, and reacted at room temperature for 24 h.
The plate was read using an MD i3X multi-mode microplate reader with the excitation and emission wavelengths of 340 nm and 665 nm, respectively. The intensity of light at a wavelength of 616 nm generated by europium excited by 340 nm wavelength light from the MD i3X multi-mode microplate reader was used as the background. According to the different activation degrees of different compounds against THRα and THRβ, the intensity of the emission light at a wavelength of 665 nm generated by exciting XL665 with the exciting light at a wavelength of 616 nm was varied. The intensity ratio between these two light wavelengths (665 nm, 616 nm) was used as the activation activity of the compound against THRα or THRβ, and the ratio in the solvent DMSO group was used for normalization. The dose-response curve was fitted with four parameters using the GraphPad Prism 6.0 software, and the EC50 value was calculated.

[2] = target: T2, THRβ (Homo sapiens, UniProt P10828); test: Reporter gene (GAL4-THRβ-LBD / Dual-Glo luciferase) agonist activity assay in HEK293T cells; format: cell-based; conditions: ratio of reporter gene EC50 values THRα/THRβ
T2 construct: expressed in transfected cells; host or cells: HEK293T
T2 sequence (P10828 217-461): T1 sequence (P10828 217-461 limits assumed)
Excerpt: Experimental Example 1: Detection of THRα and THRβ Agonist Activities of Compounds Based on Reporter Gene Activity Assay Method
1.1 Construction and Preparation of Plasmids pGAL4-THR-LBD and pG5-Luc
The pGAL4-THRα-LBD and pGAL4-THRβ-LBD plasmids used in the reporter gene assay system were constructed by a conventional molecular cloning method comprising the following main steps: the cDNA sequences of THRα (NM_003250) and THRβ (NM_000461) corresponding to the amino acid sequences of THRα (163-407AA) and THRβ (217-461AA) were inserted into the BamHI and NotI enzyme digestion sites of the pGAL4 vector by the PCR technique respectively to obtain the pGAL4-THRα-LBD and pGAL4-THRβ-LBD plasmids; the pG5-Luc (#E249A) and pRL-TK (#E2241) plasmids were purchased from Promega; the plasmids were transfected into the E. coli DH5α by the CaCl2 method, and after further culture and amplification, the plasmids were purified by Plasmid Extraction Kits (TIANGEN, #D107) to obtain the corresponding plasmid DNAs.
1.2 Co-Transfection of Plasmids into HEK293T Cells and Treatment with Compounds
The HEK293T cells were inoculated into a 96-well plate at a density of 1×10^4/well the day before plasmid transfection. Cell transfection was conducted according to the instructions of the transfection reagent FuGENE® HD (Promega, #E2311). The main steps were as follows: taking one well as an example here, the plasmids pGAL4-THRα-LBD or pGAL4-THRβ-LBD, pG5-Luc, and pRL-TK were added in the proportions of 20 ng, 50 ng, and 5 ng to 10 μL of Opti-MEM™ I medium (Gibco, #11058021) and mixed well; subsequently, 0.25 uL of FuGENE® HD was added, mixed well, and then left at room temperature for 5 min; afterwards, 10 μL of the mixture was added to the cell wells containing 100 μL of culture medium. After cell co-transfection for 6 h, the compound was diluted in a 3-fold gradient with dimethyl sulfoxide at the highest concentration of 1 uM. The compound was added to the cell culture medium at a total of 10 concentrations for treatment for 24 h. There were a total of two duplicate wells for each concentration. Triiodothyronine (T3) was used as the positive control.
1.3 Dual-Glo Luciferase Assay
After the cells were treated with the compound for 24 h, the cells were assayed according to the instructions of Dual-Glo® Luciferase Assay System (Promega, #E2940). The main steps were as follows: 50 μL of culture medium was aspirated from each well and discarded, and then 50 μL of Dual-Glo® Luciferase reagent was added and oscillated at room temperature for 10 min; 80 μL of lysis reaction solution was measured into a white opaque optiPlate-96-well plate, and the luminescence signal value (Firefly-Luc) of the Firefly luciferase was detected using an MD i3x multi-mode microplate reader; 40 μL of Dual-Glo® Stop & Glo® reagent was then added, and oscillated at room temperature for 10 min; the luminescence signal value (Renilla-Luc) of the Renilla luciferase was then detected using an MD i3x multi-mode microplate reader. The Firefly-Luc/Renilla-Luc ratio was used as the activation activity of the compound against THR, and the ratio in the solvent DMSO group was used for normalization; the dose-response curve was fitted with four parameters using the GraphPad Prism6.0 software, and the EC50 value was calculated.

For O=C(O)c1ccccc1SCc1c(Cl)cc(-n2ncc(=O)[nH]c2=O)cc1Cl [Compound 18], the “Selectivity (THRα/THRβ)” value [1] was “††† (†††: 20 ≥ THRα/β > 10;)”.

With NC(=O)c1ccccc1SCc1c(Cl)cc(-n2ncc(=O)[nH]c2=O)cc1Cl [Compound 19] the “Selectivity (THRα/THRβ)” value [1] was “††† (†††: 20 ≥ THRα/β > 10;)”.

For CNC(=O)c1ccccc1NCc1c(Cl)cc(-n2nc(C#N)c(=O)[nH]c2=O)cc1Cl [Compound 9], the “Selectivity (THRα/THRβ)” value [1] was “†† (††: 10 ≥ THRα/β;)”.

For N#Cc1nn(-c2cc(Br)c(COc3ccccc3C(N)=O)c(Br)c2)c(=O)[nH]c1=O [Compound 11], the “Selectivity (THRα/THRβ)” value [1] was “†† (††: 10 ≥ THRα/β;)”.

CNC(=O)c1ccccc1OCc1c(Cl)cc(-n2ncc(=O)[nH]c2=O)cc1Cl [Compound 17] was tested, and the “Selectivity (THRα/THRβ)” value [2] was “† (†: 5 ≥ THRα/β;)” and the “Selectivity (THRα/THRβ)” value [1] was “†† (††: 10 ≥ THRα/β;)”.

O=C(NO)c1ccccc1OCc1c(Cl)cc(-n2ncc(=O)[nH]c2=O)cc1Cl [Compound 42] was tested, and the “Selectivity (THRα/THRβ)” value [1] was “†† (††: 10 ≥ THRα/β;)”.

[2H]C(Oc1ccccc1C(=O)NC([2H])([2H])[2H])c1c(Br)cc(-n2nc(C([2H])(F)F)c(=O)[nH]c2=O)cc1Br (centres unmarked) [Compound 113] was tested, and the “Selectivity (THRα/THRβ)” value [2] was “† (†: 5 ≥ THRα/β;)” and the “Selectivity (THRα/THRβ)” value [1] was “†† (††: 10 ≥ THRα/β;)”.

For Cc1ccc(C(N)=O)c(OCc2c(Cl)cc(-n3ncc(=O)[nH]c3=O)cc2Cl)c1 [Compound 33], the “Selectivity (THRα/THRβ)” value [1] was “††† (†††: 20 ≥ THRα/β > 10;)”.

CNC(=O)c1ccccc1SCc1c(Cl)cc(-n2ncc(=O)[nH]c2=O)cc1Cl [Compound 20] was tested, and the “Selectivity (THRα/THRβ)” value [1] was “††† (†††: 20 ≥ THRα/β > 10;)”.

For CNC(=O)c1ccccc1SCc1c(Cl)cc(-n2nc(N)c(=O)[nH]c2=O)cc1Cl [Compound 29], the “Selectivity (THRα/THRβ)” value [2] was “† (†: 5 ≥ THRα/β;)” and the “Selectivity (THRα/THRβ)” value [1] was “††† (†††: 20 ≥ THRα/β > 10;)”.

With [2H]C([2H])(Oc1ccccc1C(=O)NC)c1c(Br)cc(-n2nc(C(F)F)c(=O)[nH]c2=O)cc1Br [Compound 108] the “Selectivity (THRα/THRβ)” value [2] was “† (†: 5 ≥ THRα/β;)” and the “Selectivity (THRα/THRβ)” value [1] was “†† (††: 10 ≥ THRα/β;)”.

NC(=O)c1ccccc1OCc1c(Br)cc(-n2ncc(=O)[nH]c2=O)cc1Br [Compound 38] was tested, and the “Selectivity (THRα/THRβ)” value [2] was “†† (††: 10 ≥ THRα/β > 5;)” and the “Selectivity (THRα/THRβ)” value [1] was “†† (††: 10 ≥ THRα/β;)”.

For [2H]C([2H])([2H])NC(=O)c1ccccc1OCc1c(Br)cc(-n2nc(C(F)F)c(=O)[nH]c2=O)cc1Br [Compound 109], the “Selectivity (THRα/THRβ)” value [2] was “† (†: 5 ≥ THRα/β;)” and the “Selectivity (THRα/THRβ)” value [1] was “†† (††: 10 ≥ THRα/β;)”.

CNC(=O)c1ccccc1OCc1c(Cl)cc(-n2nc(C(F)F)c(=O)[nH]c2=O)cc1Cl [Compound 53] was tested, and the “Selectivity (THRα/THRβ)” value [2] was “† (†: 5 ≥ THRα/β;)” and the “Selectivity (THRα/THRβ)” value [1] was “†† (††: 10 ≥ THRα/β;)”.

[2H]C(F)(F)c1nn(-c2cc(Br)c(COc3ccccc3C(=O)NC)c(Br)c2)c(=O)[nH]c1=O [Compound 107] was tested, and the “Selectivity (THRα/THRβ)” value [2] was “† (†: 5 ≥ THRα/β;)” and the “Selectivity (THRα/THRβ)” value [1] was “†† (††: 10 ≥ THRα/β;)”.

In the case of CNC(=O)c1ccccc1Oc1c(Cl)cc(-n2ncc(=O)[nH]c2=O)cc1Cl [Compound 114, reference compound], the “Selectivity (THRα/THRβ)” value [1] is reported as “†† (††: 10 ≥ THRα/β;)”.

In the case of N#Cc1nn(-c2cc(Cl)c(CNc3ccccc3C(=O)O)c(Cl)c2)c(=O)[nH]c1=O [Compound 10], the “Selectivity (THRα/THRβ)” value [1] is reported as “††† (†††: 20 ≥ THRα/β > 10;)”.

In the case of CNC(=O)c1ccccc1OCc1c(Br)cc(-n2nc(C#N)c(=O)[nH]c2=O)cc1Br [Compound 12], the “Selectivity (THRα/THRβ)” value [1] is reported as “†† (††: 10 ≥ THRα/β;)”.

With O=C(O)c1ccccc1NCc1c(Cl)cc(-n2ncc(=O)[nH]c2=O)cc1Cl [Compound 26] the “Selectivity (THRα/THRβ)” value [1] was “††† (†††: 20 ≥ THRα/β > 10;)”.

In the case of N#Cc1nn(-c2cc(Cl)c(CSc3ccccc3C(=O)O)c(Cl)c2)c(=O)[nH]c1=O [Compound 6], the “Selectivity (THRα/THRβ)” value [1] is reported as “††† (†††: 20 ≥ THRα/β > 10;)”.

With CNC(=O)c1ccccc1SCc1c(Br)cc(-n2nc(C#N)c(=O)[nH]c2=O)cc1Br [Compound 13] the “Selectivity (THRα/THRβ)” value [1] was “†† (††: 10 ≥ THRα/β;)”.

In the case of CCNC(=O)c1ccccc1SCc1c(Cl)cc(-n2ncc(=O)[nH]c2=O)cc1Cl [Compound 24], the “Selectivity (THRα/THRβ)” value [1] is reported as “†† (††: 10 ≥ THRα/β;)”.

For N#Cc1nn(-c2cc(Cl)c(COc3ccccc3C(N)=O)c(Cl)c2)c(=O)[nH]c1=O [Compound 1], the “Selectivity (THRα/THRβ)” value [1] was “†† (††: 10 ≥ THRα/β;)”.

In the case of CC(C)NC(=O)c1ccccc1SCc1c(Cl)cc(-n2ncc(=O)[nH]c2=O)cc1Cl [Compound 22], the “Selectivity (THRα/THRβ)” value [1] is reported as “††† (†††: 20 ≥ THRα/β > 10;)”.

In the case of CNC(=O)c1ccccc1OCc1c(Cl)cc(-n2nc(C#N)c(=O)[nH]c2=O)cc1Cl [Compound 2], the “Selectivity (THRα/THRβ)” value [1] is reported as “†† (††: 10 ≥ THRα/β;)”.

CNC(=O)c1ccccc1SCc1c(Cl)cc(-n2nc(C#N)c(=O)[nH]c2=O)cc1Cl [Compound 7] was tested, and the “Selectivity (THRα/THRβ)” value [1] was “††† (†††: 20 ≥ THRα/β > 10;)”.

With CNC(=O)c1ccccc1SCc1c(Cl)cc(-n2nc(C(F)F)c(=O)[nH]c2=O)cc1Cl [Compound 55] the “Selectivity (THRα/THRβ)” value [1] was “†† (††: 10 ≥ THRα/β;)”.

Reference: US20260048060A1, “POLYCYCLIC THYROID HORMONE b RECEPTOR AGONIST AND USE THEREOF” (CASCADE PHARMACEUTICALS, INC., priority 2022, published 2026)
